In this test the target is T1, trimeric, post-fusion form of sE (dengue envelope protein E, residues 1-395) (Dengue virus type 2, UniProt P12823).
T1 construct: post-fusion form of sE, the fragment of E spanning residues 1-395; purchased Hawaii Biotech (Hawaii Biotechnology Group, Inc., Aiea, Hi.); host or cells: Drosophila melanogaster Schneider 2 cells (pMtt vector, prM-E preprotein processed during secretion)
The experiment in a line: fluorescence depolarization binding of stem peptides to sE trimer. An excerpt:
FIG. 10 depicts fluorescence depolarization binding data for a peptide corresponding to residues 396-429 (in the “stem” region) of dengue envelope protein (E). FIG. 10A depicts a Kd analysis of the peptide's binding affinity to the trimeric, post-fusion form of E. FIG. 10B depicts a competitive binding analysis with the fluorescent and unlabeled peptide.
FIG. 11 depicts a fluorescence depolarization Kd analysis to measure the affinity between a peptide corresponding to residues 413-447 (in the “stem” region) of dengue envelope protein (E). and the trimeric, post-fusion form of E.
A peptide corresponding to residues 396-429 (in the “stem” region) of dengue envelope protein (E) binds with fairly high affinity and specificity to the trimeric, post-fusion form of sE, the fragment of E spanning residues 1-395, which we crystallized first in the pre-fusion form and then in the post-fusion form. We determined the dissociation constant (Kd) of the peptide from sE from fluorescence depolarization measurements using a fluorescently labeled version of the peptide. The Kd is around 6 μM. This indicates a fairly strong binding. FIG. 10 depicts the fluorescence depolarization results. The Kd is approximately equal to the concentration of sE at which the depolarization (in mP) reaches its half-maximal value (see FIG. 10A). […]

Ends that are not written are not given here.

Consider `CC[C@H](C)[C@H](NC(=O)[C@H](C)NC(=O)[C@H](CCSC)NC(=O)[C@H](CCCNC(=N)N)NC(=O)[C@H](CCCCN)NC(=O)[C@H](C)NC(=O)CNC(=O)[C@H](CCCNC(=N)N)NC(=O)[C@H](CCSC)NC(=O)[C@@H](NC(=O)[C@@H](NC(=O)[C@H](CCC(=O)O)NC(=O)[C@H](Cc1ccccc1)NC(=O)[C@H](CCSC)NC(=O)[C@H](CCC(N)=O)NC(=O)CNC(=O)[C@@H](NC(=O)[C@H](CO)NC(=O)[C@@H](N)CO)[C@@H](C)CC)[C@@H](C)O)[C@@H](C)O)C(=O)N[C@@H](CC(C)C)C(=O)NCC(=O)N[C@@H](CC(=O)O)C(=O)N[C@H](C(=O)N[C@@H](C)C(=O)N[C@@H](Cc1c[nH]c2ccccc12)C(=O)N[C@@H](CC(=O)O)C(=O)N[C@@H](Cc1ccccc1)C(=O)NCC(=O)N[C@@H](CO)C(=O)N[C@@H](CC(C)C)C(=O)NCC(=O)NCC(=O)N[C@H](C(=O)N[C@@H](Cc1ccccc1)C(=O)O)C(C)C)[C@@H](C)O` [396-429], for which the “competitive binding of fluorescent and unlabeled peptide” value (fluorescence depolarization, FIG. 10B, shows that binding is specific to one site of sE) is recorded as “can be competed off of sE with unlabeled peptide”. As for “AILGDTAWDFGSLGGVFTSIGKALHQVFGAIYGAA [413-447]”, the Kd (usually the concentration at which binding is half-saturated) is roughly 4 µM.

(Values after patent US8673552B2, “Druggable regions in the dengue virus envelope glycoprotein and methods of using the same” (Children's Medical Center Corporation, priority 2003, dated 2014).)
